Experimental data as given in patent US20210161134A1, “HERBICIDE AND METHOD OF APPLYING A HERBICIDE” (priority 2015, published 2021).
Read-outs that look alike come from different tables or passages of the source.

Columns and labels:
Field Bindweed = experiment: Killing of field bindweed by amino acid (FIG. 4); format: in vivo
hounds tongue = experiment: Killing of hounds tongue by amino acid; format: in vivo
morning glories = experiment: Killing of morning glories by amino acid; format: in vivo
leafy spurge = experiment: Killing of leafy spurge by amino acids; format: in vivo
Rush Skeleton weed = experiment: Killing of rush skeleton weed by amino acid (FIG. 3); format: in vivo
hoary alssum = experiment: Killing of hoary alyssum by amino acid; format: in vivo
common yarroen = experiment: Killing of common yarrow by amino acid; format: in vivo
Canada thistle = experiment: Killing of Canada thistle by amino acid herbicide (FIG. 1)
dandilions = experiment: Killing of dandelions by amino acid herbicide; format: in vivo, dandelion
wild rubarb = experiment: Killing of wild rhubarb by amino acid; format: in vivo
Spotted Knapweed = experiment: Killing of spotted knapweed by amino acids; format: in vivo

SMILES	kill of the weed (Field Bindweed)	kill of the weed (hounds tongue)	kill of the weed (morning glories)	kill of the weed (leafy spurge)	kill of the weed (Rush Skeleton weed)	kill of the weed (Rush Skeleton weed; listed as Lysine)	kill of the weed (hoary alssum)	kill of the weed (common yarroen)	kill of the weed (Canada thistle)	kill of the weed (Canada thistle; listed as lysine)	kill of the weed (dandilions)	kill of the weed (wild rubarb)	kill of the weed (Kudzu)	kill of the weed (Kudzu; listed as Methionine)	kill of the weed (eurasian milfoil)	kill of the weed (poa anna)	kill of the weed (Spotted Knapweed)
NCCCC[C@H](N)C(=O)O [L-Lysine]	killed	kill	kill	kill	kill	killed	kill	kill	kill	kills the plant	kill	kill					
CSCC[C@H](N)C(=O)O [L-methionine]									kills the plant				kill	killed	kill	kill	kill
CC(C)[C@H](N)C(=O)O [Valine]		killed															
